# In patent US20240124454A1, “TRICYCLIC COMPOUND AND USE THEREOF” (NANJING ZAIMING PHARMACEUTICAL CO., LTD., priority 2020, published 2024):
# Where two headings read alike, the source gives them in different places.
# Legend:
# [1] = molecular target: MAT2A (Homo sapiens (Human), UniProt P31153); test: MAT2A biochemical test (inorganic phosphate colorimetric, PiColorLock); conditions: read-out: MAT2A inhibitory Activity IC50
# Procedure, shortened: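 Compounds tested from 10 μM top concentration in 3-fold dilutions, preincubated 120 min at room temperature with MAT2A ([…] final) in Tris/KCl/MgCl2/EDTA/BSA buffer. Reaction started with […] L-methionine and 400 μM ATP, run 90 min at room temperature; phosphate read by PiColorLock after 30 min. IC50 fitted from % inhibition versus no-enzyme and DMSO controls.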
# [2] = molecular target: CYP3A4 (Homo sapiens (Human), UniProt P08684); test: CYP3A4 inhibition in human liver microsomes (midazolam substrate); type: in vitro ADME; conditions: human liver microsome
# Chain of CYP3A4 (P08684 whole entry): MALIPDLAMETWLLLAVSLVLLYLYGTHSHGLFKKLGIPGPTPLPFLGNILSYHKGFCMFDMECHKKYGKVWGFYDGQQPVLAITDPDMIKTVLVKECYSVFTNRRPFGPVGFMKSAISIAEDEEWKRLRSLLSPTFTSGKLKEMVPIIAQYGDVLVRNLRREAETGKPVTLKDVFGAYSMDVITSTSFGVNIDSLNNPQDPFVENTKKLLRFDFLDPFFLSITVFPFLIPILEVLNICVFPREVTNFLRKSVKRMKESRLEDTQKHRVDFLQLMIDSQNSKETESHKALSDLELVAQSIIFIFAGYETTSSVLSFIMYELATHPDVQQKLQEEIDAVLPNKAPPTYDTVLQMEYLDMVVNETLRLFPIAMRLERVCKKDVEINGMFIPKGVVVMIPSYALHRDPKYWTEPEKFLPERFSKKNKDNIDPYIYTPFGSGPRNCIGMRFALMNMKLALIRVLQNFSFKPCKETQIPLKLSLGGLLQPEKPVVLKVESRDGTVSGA
# Procedure: (§1) Test Example 7. Inhibitory Effect of Compound of the Present Application on Enzymatic Activity of CYP2C9, CYP2D6, and CYP3A4
# (§2) The inhibition of CYP2C9, CYP2D6, and CYP3A4 activity by the compound of the present application was determined using the following method.
# (§3) I. Experimental materials and instruments • 1. Human liver microsome (Corning 452117) • 2. NADPH (Solarbio 705Y021) • 3. Positive substrates diclofenac (Sigma SLBV3438), dextromethorphan (TRC 3-EDO-175-1), and midazolam (Cerilliant FE01161704) • 4. Positive inhibitors sulfaphenazole (D. Ehrenstorfer GmbH 109012), quinidine (TCI WEODL-RE), and ketoconazole (Sigma 100M1091V) • 5. AB Sciex Triple Quad 5500 liquid chromatography-mass spectrometry system
# (§4) 1. Preparation of 100 mM phosphate-buffered saline (PBS): 7.098 g Na2HPO4 was weighed. 500 mL pure water was added. The mixture was dissolved by sonication to give solution A. 3.400 g KH2PO4 was weighed. 250 mL pure water was added. The mixture was dissolved by sonication to give solution B. The solution A was placed in a stirrer, and the solution B was slowly added until the pH reached 7.4, so that the 100 mM PBS buffer was prepared.
# (§5) 2. A 10 mM NADPH solution was prepared with a 100 mM PBS buffer. A 10 mM stock solution of the compound of the present application was diluted with DMSO to give a compound working solution at a concentration of 200×(6000, 2000, 600, 200, 60, 20, and 0 μM). The positive inhibitor stock solution was diluted with DMSO to give a positive inhibitor working solution at a concentration of 200×(sulfaphenazole, 1000, 300, 100, 30, 10, 3, and 0 μM; quinidine/ketoconazole, 100, 30, 10, 3, 1, 0.3, and 0 μM). Substrate working solutions (120 μM diclofenac, 400 μM dextromethorphan, and 200 μM midazolam) at a concentration of 200× were prepared with water, acetonitrile, or acetonitrile/methanol.
# (§6) 3. 2 μL of 20 mg/mL liver microsome solution, 1 μL of substrate working solution, 1 μL of compound working solution, and 176 μL of PBS buffer were taken, mixed well, and placed in a 37° C. water bath for pre-incubation for 15 min. 1 μL of sulfaphenazole, quinidine, or ketoconazole working solution was added to the positive control group instead of the compound working solution. At the same time, 10 mM NADPH solution was placed together in the 37° C. water bath for pre-incubation for 15 min. After 15 min, 20 μL of NADPH was added to each well to initiate the reaction. The mixture was incubated at 37° C. for 5 min (CYP2C9), 20 min (CYP2D6), or 5 min (CYP3A4). All incubated samples were in duplicate. After incubation for the corresponding period of time, 400 μL of icy methanol containing internal standard was added to all samples to stop the reaction. The mixture was vortexed, mixed well, and centrifuged for 40 min at 4° C. at 3220 g. 100 μL of the supernatant was transferred to a feeding plate after the centrifugation was completed, and 100 μL ultrapure water was added. The mixture was well mixed for LC-MS/MS analysis.
# (§7) The reduction of metabolite production in the treatment groups versus the control group was compared by the peak area ratios of the sample to the internal standard, and the IC50 value was calculated using Excel XLfit 5.3.1.3.
# (§8) Percentages of remaining activity were calculated according to the following formula:
# (§9) Remaining activity%=peak area ratio of metabolite to internal standardtest sample/peak area ratio of metabolite to internal standardblank solvent×100%.
# [3] = molecular target: CYP2C9 (Homo sapiens (Human), UniProt P11712); test: CYP2C9 inhibition in human liver microsomes (diclofenac substrate); type: in vitro ADME; conditions: human liver microsome
# Chain of CYP2C9 (P11712 whole entry): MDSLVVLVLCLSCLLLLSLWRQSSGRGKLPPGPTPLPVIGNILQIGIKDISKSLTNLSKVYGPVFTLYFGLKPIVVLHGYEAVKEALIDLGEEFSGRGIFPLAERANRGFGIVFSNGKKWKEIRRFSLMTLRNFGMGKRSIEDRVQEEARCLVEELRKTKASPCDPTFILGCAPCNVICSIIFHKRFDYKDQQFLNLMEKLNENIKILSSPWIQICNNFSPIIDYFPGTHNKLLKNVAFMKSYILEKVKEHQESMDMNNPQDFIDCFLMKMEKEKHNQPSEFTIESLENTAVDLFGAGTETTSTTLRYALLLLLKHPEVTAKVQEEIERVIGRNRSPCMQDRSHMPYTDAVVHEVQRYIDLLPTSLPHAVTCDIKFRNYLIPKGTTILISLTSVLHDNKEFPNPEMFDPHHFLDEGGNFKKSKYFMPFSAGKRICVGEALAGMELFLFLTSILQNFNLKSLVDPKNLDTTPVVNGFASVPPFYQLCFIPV
# Procedure: as §1, §2, §3, §4, §5, §6, §7, §8, §9
# Chain of MAT2A (P31153 whole entry): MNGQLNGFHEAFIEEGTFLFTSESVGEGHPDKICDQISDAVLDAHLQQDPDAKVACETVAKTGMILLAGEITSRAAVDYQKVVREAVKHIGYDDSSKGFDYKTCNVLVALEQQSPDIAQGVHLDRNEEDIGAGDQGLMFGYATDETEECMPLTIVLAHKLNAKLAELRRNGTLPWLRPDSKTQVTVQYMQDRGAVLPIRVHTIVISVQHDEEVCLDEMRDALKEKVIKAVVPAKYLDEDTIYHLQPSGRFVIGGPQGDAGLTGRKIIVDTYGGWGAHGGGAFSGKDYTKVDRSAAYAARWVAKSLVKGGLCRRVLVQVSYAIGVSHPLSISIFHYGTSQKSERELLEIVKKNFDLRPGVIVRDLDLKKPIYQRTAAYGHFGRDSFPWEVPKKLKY
IC50 ([1]; class symbols) [nM],IC50 ([1]; numeric values) [nM],IC50 [2] [nM],IC50 [3] [nM],Structure (SMILES)
< 100,54.9,> 30000,> 30000,"Cc1ncccc1-n1c(=O)c2ncn(C)c2c2ccc(C(F)(F)F)nc21 (atropisomer, axis not shown) [Compound 20, 1-methyl-5-(2-methylpyridin-3-yl)-7-(trifluoromethyl)-1,5-dihydro-4H-imidazo[4,5-c][1,8]naphthyridin-4-one]"
< 100,48,> 30000,> 30000,"Cn1cnc2c(=O)n(-c3cccc(F)c3Cl)c3nc(C(F)(F)F)ccc3c21 (atropisomer, axis not shown) [Compound 25, 5-(2-chloro-3-fluorophenyl)-1-methyl-7-(trifluoromethyl)-1,5-dihydro-4H-imidazo[4,5-c][1,8]naphthyridin-4-one]"
< 100,20.6,> 30000,> 30000,"Cn1cnc2c(=O)n(-c3cccc(F)c3Cl)c3nc(C(F)(F)F)ccc3c21 (single isomer, unassigned) [Compound 25-P2, 5-(2-chloro-3-fluorophenyl)-1-methyl-7-(trifluoromethyl)-1,5-dihydro-4H-imidazo[4,5-c][1,8]naphthyridin-4-one]"
< 100,22.3,> 30000,> 30000,"Cn1cnc2c(=O)n(-c3cccnc3C(F)(F)F)c3nc(C(F)(F)F)ccc3c21 (single isomer, unassigned) [Compound 41-P2, 1-methyl-7-(trifluoromethyl)-5-(2-(trifluoromethyl)pyridin-3-yl)-1,5-dihydro-4H-imidazo[4,5-c][1,8]naphthyridin-4-one]"
< 100,20.3,> 30000,> 30000,"Cn1cnc2c(=O)n(-c3cccnc3C3CC3)c3nc(C(F)(F)F)ccc3c21 (single isomer, unassigned) [Compound 42-P2, 5-(2-cyclopropylpyridin-3-yl)-1-methyl-7-(trifluoromethyl)-1,5-dihydro-4H-imidazo[4,5-c][1,8]naphthyridin-4-one]"
< 100,21.4,> 30000,> 30000,"Cn1cnc2c(=O)n(-c3cccnc3C3CC3)c3cc(C(F)(F)F)ccc3c21 (single isomer, unassigned) [Compound 48-P2, 5-(2-cyclopropylpyridin-3-yl)-1-methyl-7-(trifluoromethyl)-1,5-dihydro-4H-imidazo[4,5-c]quinolin-4-one]"
< 100,36.2,> 30000,> 30000,"O=c1c2ncoc2c2ccc(C(F)(F)F)nc2n1-c1cccnc1C1CC1 (single isomer, unassigned) [Compound 81-P2, 5-(2-cyclopropylpyridin-3-yl)-7-(trifluoromethyl)oxazolo[4,5-c][1,8]naphthyridin-4(5H)-one]"
< 100,47,> 30000,> 30000,"Cc1ncccc1-n1c(=O)c2ncn(C)c2c2ccc(C(F)(F)F)cc21 [Compound 45, 1-methyl-5-(2-methylpyridin-3-yl)-7-(trifluoromethyl)-1,5-dihydro-4H-imidazo[4,5-c]quinolin-4-one]"

Structure (SMILES),IC50 ([1]; class symbols) [nM],IC50 ([1]; numeric values) [nM],IC50 [2] [nM],IC50 [3] [nM]
"Cn1cnc2c(=O)n(-c3cccnc3C3CC3)c3cc(Cl)ccc3c21 (single isomer, unassigned) [Compound 49-P2, 7-chloro-5-(2-cyclopropylpyridin-3-yl)-1-methyl-1,5-dihydro-4H-imidazo[4,5-c]quinolin-4-one]",< 100,18.7,> 30000,> 30000
"Cn1cnc2c(=O)n(-c3cccc(F)c3Cl)c3cc(Cl)ccc3c21 [Compound 39, 7-chloro-5-(2-chloro-3-fluorophenyl)-1-methyl-1,5-dihydro-4H-imidazo[4,5-c]quinolin-4-one]",< 100,60.4,> 30000,> 30000
"Cc1ncccc1-n1c(=O)c2ncoc2c2ccc(C(F)(F)F)nc21 [Compound 40, 5-(2-methylpyridin-3-yl)-7-(trifluoromethyl)oxazolo[4,5-c][1,8]naphthyridin-4(5H)-one]",< 100,43,> 30000,> 30000
